Results taken from patent publication US20180155429A1, “TREATMENT OF PD-L1 POSITIVE LUNG CANCER USING AN ANTI-PD-1 ANTIBODY” (Bristol-Myers Squibb Company, priority 2015, published 2018).

Assays:
[1] = target: T1, PD-1 (Homo sapiens, UniProt Q15116); details: 15 subjects, 0.3 mg/kg to 10 mg/kg, across all doses, cited from earlier work
T1 construct: Receptor-occupancy data from 15 subjects who received 0.3 mg/kg to 10 mg/kg dosing with nivolumab indicate that PD-1 occupancy appears to be dose-independent; endogenous in cells

[2] = system: advanced non-squamous (non-SQ) NSCLC; assay: Randomized phase III study of nivolumab versus docetaxel, efficacy (OS, PFS, ORR, DOR, also by tumor PD-L1 expression); type: in vivo, human; details: for Best overall response CR / Best overall response PD / Best overall response PR / Best overall response SD / Best overall response Unable to determine: Nivo N = 292, Doc N = 290; for mOS: PD-L1+ patients; for 1-year PFS rate / median OS / 1-year OS rate: all randomized pts; for 1-year OS rate: nivolumab 3 mg/kg IV Q2W, docetaxel 75 mg/m^2 IV Q3W; for Median time to response: all responders (NIVO, n = 56; DOC, n = 36); for Ongoing response: at last tumor assessment before censoring, responders
Description: (§1) 582 patients were randomized to receive either nivolumab or docetaxel. 292 were randomized to receive nivolumab, and of these, 287 actually received nivolumab. 290 were randomized to receive docetaxel, and of these, 268 actually received docetaxel. Patients were treated with nivolumab at 3 mg/kg IV Q2W until they experienced a progressive disease or unacceptable toxicity. Patients were treated with docetaxel at 75 mg/m^2 IV Q3W until progressive disease or unacceptable toxicity occurred. The primary end point of the study was overall survival (OS). The secondary endpoints of the study were overall response rate (ORR) (Per RECIST v1.1 criteria as determined by the investigator), progression free survival (PFS) (Per RECIST v1.1 criteria as determined by the investigator), efficacy by tumor PD-L1 expression, and disease-related symptom improvement rate by week 12. An overview of the trial can be seen in FIGS. 1A and 1B.
All patients had either stage IIIB or stage IV non-squamous NSCLC and 1 prior PT-DC treatment. Prior maintenance therapy with pemetrexed, bevacizumab or erlotinib was allowed (and was not considered a separate line of therapy). Prior TKI therapy was allowed for a known ALK translocation or EGFR mutation. The ECOG PS was 0-1. Patients were stratified by prior maintenance therapy and line of therapy (second-vs third-line)
In this example, ALK means anaplastic lymphoma kinase; ECOG PS means Eastern Cooperative Oncology Group performance status; EGFR means epidermal growth factor receptor; IV means intravenous; LCSS means Lung Cancer Symptom Scale; ORR means objective response rate; OS=overall survival; PFS=progression-free survival; PD=progressive disease; and TKI means tyrosine kinase inhibitor.
The PD-L1 expression was measured for the patients. The DAKO PD-L1 Assay Analytical Validation and Clinical Sample Testing is described in Table 3.

[3] = Randomized phase III study of nivolumab versus docetaxel, exposure and safety; type: in vivo, human; details: for Treatment-related deaths: at DBL, treated pts
Description: as §1

[4] = cited from earlier work
[5] = all randomized pts (Nivo N = 292, Doc N = 290), RECIST v1.1, investigator

T1 sequence (Q15116 25-288): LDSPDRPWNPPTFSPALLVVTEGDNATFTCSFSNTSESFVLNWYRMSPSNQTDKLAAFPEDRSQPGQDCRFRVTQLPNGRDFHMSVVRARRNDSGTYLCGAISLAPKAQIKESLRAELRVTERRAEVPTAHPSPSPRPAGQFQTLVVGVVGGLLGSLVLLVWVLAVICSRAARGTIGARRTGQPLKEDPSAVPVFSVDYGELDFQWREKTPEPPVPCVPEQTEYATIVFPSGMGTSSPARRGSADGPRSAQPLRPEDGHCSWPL

Molecule	Best overall response CR [2]	Best overall response PD [2]	Best overall response PR [2]	Best overall response SD [2]	Best overall response Unable to determine [2]	mOS ([2]; 1% expression level) [months]	mOS ([2]; 5% expression level) [months]	mOS ([2]; 10% expression level) [months]	Median DOR ([2]; PD-L1 Negative (<1%)) [mos]	ORR ([2]; PD-L1 Negative (<1%)) [%]	Median DOR ([2]; PD-L1 Negative (<5%)) [mos]	ORR ([2]; PD-L1 Negative (<5%)) [%]	Median DOR ([2]; PD-L1 Negative (<10%)) [mos]	ORR ([2]; PD-L1 Negative (<10%)) [%]	Median DOR ([2]; PD-L1 Not quantifiable) [mos]	ORR ([2]; PD-L1 Not quantifiable) [%]	Median DOR ([2]; PD-L1 Positive (≥1%)) [mos]	ORR ([2]; PD-L1 Positive (≥1%)) [%]	Median DOR ([2]; PD-L1 Positive (≥5%)) [mos]	ORR ([2]; PD-L1 Positive (≥5%)) [%]	further results
nivolumab	(1.4) %	(44) %	(18) %	(25) %	(11) %	17.2	18.2	19.4	18.3	9.3	18.3	10	18.3	11	7.3	13	16.0	31	16.0	36	mean plateau PD-1 occupancy ([1]; range 59% to 81%): 72%; mean PD-1 occupancy rate ([1]; range 70% to 97%): 85%; Estimated odds ratio (95% CI) for ORR ([2]; Nivo vs Doc, P-value 0.0246): 1.7 (1.1, 2.6); Median DOR ([2]; PD-L1 Positive (≥10%)): 16.0 mos; ORR ([2]; PD-L1 Positive (≥10%)): 37%; 1-year PFS rate [2]: 19%; median OS [2]: 12.2 months; ORR [2, 5]: 19%; 1-year OS rate [2]: 51%; Median DOR ([2]; all responders): 17.2 mos; Median time to response [2]: 2.1 mos; Ongoing response [2]: (52) %; reduction in risk of death ([2]; nivolumab in comparison to docetaxel): 27%; HR (risk of death) ([2]; nivolumab in comparison to docetaxel, P=0.0015): 0.73; Treatment-related deaths [3]: 0^8; safety profile ([3]; in vivo): favorable vs docetaxel; tolerated dose ([4]; given intravenously every 2 weeks): up to 10 mg/kg; maximum tolerated dose (MTD) ([4]; nivolumab monotherapy every two weeks, MTD not reached): > 10 mg/kg
CC(=O)O[C@@]12CO[C@@H]1C[C@H](O)[C@@]1(C)C(=O)[C@H](O)C3=C(C)[C@@H](OC(=O)[C@H](O)[C@@H](NC(=O)OC(C)(C)C)c4ccccc4)C[C@@](O)([C@@H](OC(=O)c4ccccc4)[C@H]21)C3(C)C [docetaxel, reference compound]	(0.3) %	(29) %	(12) %	(42) %	(16) %	9.0	8.1	8.0	5.6	15	5.6	14	5.6	14	6.6	9.1	5.6	12	5.6	13	Median DOR ([2]; PD-L1 Positive (≥10%)): 5.6 mos; ORR ([2]; PD-L1 Positive (≥10%)): 13%; 1-year PFS rate [2]: 8.1%; median OS [2]: 9.4 months; ORR [2, 5]: 12%; 1-year OS rate [2]: 39%; Median DOR ([2]; all responders): 5.6 mos; Median time to response [2]: 2.6 mos; Ongoing response [2]: (14) %; Treatment-related deaths [3]: 0.4^9; Treatment-related select AE: Hypothyroidism ([3]; human, in vivo): 0%; Treatment-related select AE: Pneumonitis ([3]; human, in vivo): 0.4%
